US6465486B1 (Ortho-McNeil Pharmaceutical, Inc., priority 1999, dated 2002)
Structures can show the parent of a compound that is named as a salt. Where two headings read alike, the source gives them in different places.

How the values were obtained:
[1] = test system: mouse acetylcholine bromide-induced abdominal constriction; assay: Mouse Acetylcholine Bromide-Induced Abdominal Constriction Assay (MAIT); format: in vivo; conditions: po; dose not given; acetylcholine bromide 5.5 mg/kg i.p. 30 minutes after drug
Description: Mouse Acetylcholine Bromide-Induced Abdominal Constriction Assay (MAIT)
The mouse acetylcholine bromide-induced abdominal constriction assay, as described by Collier et al. in Brit. J. Pharmacol. Chem. Ther., 32: 295-310, 1968, with minor modifications was used to assess analgesic potency of the compounds herein. The test drugs or appropriate vehicle were administered orally (p.o.) and 30 minutes later the animal received an intraperitoneal (i.p.) injection of 5.5 mg/kg acetylcholine bromide (Matheson, Coleman and Bell, East Rutherford, N.J.). The mice were then placed in groups of three into glass bell jars and observed for a ten minute observation period for the occurrence of an abdominal constriction response (defined as a wave of constriction and elongation passing caudally along the abdominal wall, accompanied by a twisting of the trunk and followed by extension of the hind limbs). The percent inhibition of this response to a nociceptive, stimulus (equated to % analgesia) was calculated as follows: The % Inhibition of response, i.e., % analgesia is equal to the difference between the number of control animals responding and the number of drug-treated animals responding times 100 divided by the number of control animals responding.
At least 15 animals were used for control and in each of the drug treated groups. […] The ED50 values and their 95% fiducial limits were determined by a computer assisted probit analysis.

[2] = biological target: T1, Alpha-2D Adrenergic Receptor (Rattus norvegicus, UniProt P22909); assay: Alpha-2D Adrenergic Receptor Binding Assay (3H-para-aminoclonidine, rat cortex membranes); conditions: for % inh of α2D: cells printed with % sign, test concentration not given
T1 construct: aliquots of the synaptic membrane fraction, the ligand ^3H-para-aminoclonidine and test drug; from tissue; host or cells: rat brain cortex, synaptic membrane fraction
T1 sequence (P22909 1-465): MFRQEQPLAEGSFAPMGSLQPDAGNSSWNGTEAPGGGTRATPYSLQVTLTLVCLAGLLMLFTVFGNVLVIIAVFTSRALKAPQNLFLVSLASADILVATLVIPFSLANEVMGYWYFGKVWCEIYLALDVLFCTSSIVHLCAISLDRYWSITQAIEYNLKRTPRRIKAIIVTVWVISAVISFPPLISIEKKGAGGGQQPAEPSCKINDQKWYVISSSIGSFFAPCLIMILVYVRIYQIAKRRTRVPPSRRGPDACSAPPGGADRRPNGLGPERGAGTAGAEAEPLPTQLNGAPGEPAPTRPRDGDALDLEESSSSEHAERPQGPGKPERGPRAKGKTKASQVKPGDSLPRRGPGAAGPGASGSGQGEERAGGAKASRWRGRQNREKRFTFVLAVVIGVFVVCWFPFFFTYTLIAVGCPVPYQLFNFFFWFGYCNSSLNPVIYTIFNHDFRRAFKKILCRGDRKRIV
Description: Alpha-2D Adrenergic Receptor Binding Assay
Male, Wistar rats (150-250 g, VAF, Charles River, Kingston, N.Y.) are sacrificed by cervical dislocation and their brains removed and placed immediately in ice cold HEPES buffered sucrose. The cortex is dissected out and homogenized in 20 volumes of HEPES sucrose in a Teflon™-glass homogenizer. The homogenate is centrifuged at 1000 g for 10 min, and the resulting supernatant centrifuged at 42,000 g for 10 min. The resulting pellet is resuspended in 30 volumes of 3 mM potassium phosphate buffer, pH 7.5, preincubated at 25° C. for 30 min and recentrifuged. The resulting pellet is resuspended as described above and used for the receptor binding assay. […] The incubation is terminated by filtration of the tube contents through glass fiber filter sheets. Following washing of the sheets with 10 mM HEPES buffer, the adhering radioactivity is quantified by liquid scintillation spectrometry.
Binding of the test drug to the receptor is determined by comparing the amount of radiolabeled ligand bound in control tubes without drug to the amount of radiolabeled ligand bound in the presence of the drug. Dose-response data are analyzed with LIGAND, a nonlinear curve fitting program designed specifically for the analysis of ligand binding data.

SMILES | % inh of MAIT [1] [po %] | Ki [2] [nM] | melting point [°C] | % inh of α2D [2] [%] | Ki ([2]; rat cortex synaptic membranes, ligand 3H-para-aminoclonidine, cells without % sign, read-out: α2D Ki) [nM]
Cc1ncccc1Cc1c[nH]cn1.Cl.Cl [Cp-1, 4-[(2-Methylpyrid-3-yl)methyl]-1H-imidazole Dihydrochloride] | 93 | 7.1 | 236 to 237.5 |  | 
Cc1ncccc1CCc1c[nH]cn1.Cl.Cl [Cp-2, 4-[(2-Methylpyrid-3-yl)ethyl]-1H-imidazole Dihydrochloride] |  |  | 258.5 to 263 |  | 
Cl.Cl.c1cncc(Cc2c[nH]cn2)c1 [Cp-3] | 47 |  |  | 89 | 
Brc1cncc(Cc2c[nH]cn2)c1.O=C(O)/C=C/C(=O)O [Cp-4, 4-[(5-Bromopyridin-3-yl)methyl]-1H-imidazole Fumarate] | 54 |  | 139 to 145 | 83 | 
Brc1cncc(CCc2c[nH]cn2)c1.O=C(O)/C=C/C(=O)O [Cp-5, 4-[(5-Bromopyridin-3-yl)ethyl]-1H-imidazole Fumarate] |  |  | 156 to 158 |  | 
Cl.c1ccc(Cc2c[nH]cn2)nc1 [Cp-6, 4-[(Pyridin-2-yl)methyl]-1H-imidazole Hydrochloride] | 40 |  | 197 to 200 | 83 | 
c1ccc(C(c2ccccn2)c2c[nH]cn2)cc1 (stereo not shown) [Cp-7, 4-[(Pyridin-2-yl)methylphenyl]-1H-imidazole] | 13 |  |  |  | 1000
c1ccc2nc(Cc3c[nH]cn3)ccc2c1 [Cp-9] | 20 | 1.6 |  |  | 
Cc1ncccc1C(C)c1c[nH]cn1 (stereo not shown) [Dihydrochloride] | 33 |  |  |  | 
CC(c1cncc(Br)c1)c1c[nH]cn1 (stereo not shown) [Fumarate] | 53 |  |  |  | 
